# Data reported in PMC5641083, “Blockage of FOXP3 transcription factor dimerization and FOXP3/AML1 interaction inhibits T regulatory cell activity: sequence optimization of a peptide inhibitor” (Oncotarget, 2017).
# Where a SMILES comes first, the peptide text is derived from it. [ ]: non-standard residue; d: D form.
# What was measured:
# [1] = Metabolic stability in human liver microsomes; type: in vitro ADME; conditions: 1 μM, estimated by first order kinetics
# Procedure: (§1) Metabolic stability was measured by Wuxi AppTech (Shanghai, China). Briefly, peptides (1 μM, 5% MeOH in potassium phosphate buffer) were incubated with human (catalogue no. 452161 from BD Gentest) and mouse (catalogue no. M1000, Xenotech) liver microsomes at 37°C for 10 min. Liver microsomes were at a final assay concentration of 0.7 mg protein/mL. The reaction was started by the addition of 90 μL of NADP cofactor solution and stopped by the addition of 300 μL of stop solution (acetonitrile at 4°C, including 100 ng/mL tolbutamide as an internal standard) after 20 min of incubation. The samples were shaken for 5 min and then centrifuged for 20 min at 1500 g. A 100 μL aliquot of the supernatant was transferred to eight new 96-well plates with 300 μL of HPLC water and centrifuged at 1500 g for LC-MS/MS analysis (Shimadzu LC 10-AD−API 4000). An injection volume of 10 μL was added to a Phenomenex Synergi C18 column eluting with formic acid in water or acetonitrile at a flow rate of 800 μL/min. The percent loss of parent compound was calculated from the peak area ratio of the analyte/internal standard. Compounds and positive controls were tested in duplicate.
# CD4+CD25-ve splenocytes = assay: Effector T cells alone stimulated with anti-CD3: proliferation, IL-2 and IFN-γ; type: cell-based; conditions: anti-CD3 stimulation, no Treg
# From the text: (§2) FOXP3 is critical for the development and function of Tregs, but also, FOXP3 can be transiently expressed in effector T cells after TCR stimulation leading to hyporesponsiveness of the effector T cell. […] We speculate that the Foxp3 inhibitory peptides may work at two levels: (i) reducing Treg function and (ii) releasing the brake of FOXP3 transient expression on effector T cells. Thus, we studied the effect of CM-1315 in T cell proliferation and IL-2 and IFN-γ production in effector T cells in response to anti-CD3 stimulation. The original P60, the optimized peptide CM-1315 and a control peptide were tested. […] We also studied the effect of the peptides directly in Tregs. Thus, freshly isolated Treg cells were pre-treated with the peptides for 24 h, and after extensive washing, they were used in conventional Treg suppression assay in coculture with effector T cells and anti-CD3 stimulation.
# (§3) Supplementary Figure 4: Effect of Foxp3 inhibitory peptides in effector T cells alone. […] T cell proliferation (A) and IL-2 and IFN-γ (B and C) production in response to anti-CD3 stimulation was measured by 3H-thymidine incorporation and by ELISA respectively.
# (§4) Supplementary Figure 5: Effect of FOXP3 inhibitory peptides in Treg cells. […] T cell proliferation was measured by 3H-thymidine incorporation assay. […]
# CT26 tumor cells = assay: AH1 vaccination and CT26 tumor challenge; type: in vivo, BALB/c mice; conditions: AH1 in IFA, peptide 10 nanomol/mice/day i.p. 10 days, challenge 10^6 CT26 cells s.c. day 10
# Procedure: In those experiments, BALB/c mice were immunized with peptide AH1 emulsified in IFA and treated daily with saline or with 50 nanomol/mice/day of peptide P60 i.p. from day 0 to day 9 after immunization. To study the efficacy of CM-1315, our optimized version of P60, mice immunized with AH1 were treated with 10 nanomol/mice/day of P60 or CM-1315 and challenged at day 10 by s.c. injection with 10^6 CT26 tumor cells (instead of 5 × 10^5 cells used in our previous study). As control, groups of mice were injected with AH1 alone or left untreated.
# For tumor rejection experiments, Hepa-129 cells (10^6 cells/mouse), were injected subcutaneously (sc) in C3H/HeN mice (n = 6). Ten days later, when the tumor reached 5 mm in diameter, mice were randomly divided into different experimental groups. A group of mice were treated i.p. with anti-PD1 antibodies (50 μg/mouse). Antibody administration was repeated one week after this first administration. A group of mice treated with anti-PD1 also received the cyclic peptide CM-1215 from days 10 to 20 (50 μg/mice/day). Tumor size, presented as the average of two perpendicular diameters (millimetres), was measured at regular intervals. Mice were sacrificed when the mean tumor diameter was greater than 20 mm. […] Tumor size was monitored twice a week with a calliper and it was expressed according to the formula V = (length × width^2)/2. […]
# [2] = Metabolic stability in mouse liver microsomes; type: in vitro ADME; conditions: 1 μM, estimated by first order kinetics
# Procedure: as §1
# [3] = system: AH1-specific IFN-γ producing cells; assay: AH1 immunization in CD25+ depleted mice, IFN-γ ELISPOT; type: in vivo; conditions: mice depleted of CD25+ T cells, CM-1315 day 1 to day 7
# From the text: We also studied the effect of CM-1315 peptide in vivo to improve the immune response after immunization with AH1 peptide in naïve mice and in mice depleted of CD25+ T cells. In this experiment, depletion of CD25+ T cells improved the number of AH1-specific IFN-γ producing cells.
# Supplementary Figure 6: In vivo the effect of CM-1315 peptide to improve the immunogenicity of AH1 peptide vaccine.
# AH1 peptide, encompassing a cytotoxic T cell epitope for H-2Ld MHC class I molecule, was emulsified in Incomplete Freund adjuvant as previously described and used to immunize groups of naïve mice and in mice depleted of CD25+ T cells (n = 4). A group of CD25 depleted mice was immunized with AH1 and treated with CM-1315 peptide from day 1 to day 7 after immunization. Ten days after, immune response against AH1 was measured by ELISPOT assay to quantify the number of IFN-γ producing cells.
# (1 picture or pasted object on this page, not shown here)
# Treg cells = assay: Treg pre-treated with peptide, then Treg suppression assay; type: cell-based; conditions: Treg incubated with peptide at 20 μM for 24 hours, washed
# From the text: as §2, §3, §4
smiles,measurement,setting,value
CSCC[C@@H]1NC(=O)[C@H](C)NC(=O)[C@H](Cc2ccccc2)NC(=O)[C@H](Cc2ccccc2)NC(=O)[C@@H]2CCCN2C(=O)[C@H](Cc2c[nH]c3ccccc23)NC(=O)[C@H](CCSC)NC(=O)[C@H](CCCCN)NC(=O)[C@H](CCCNC(=N)N)NC(=O)[C@H](Cc2ccccc2)NC(=O)[C@H](C)NC(=O)[C@H](CCC(N)=O)NC(=O)[C@H](Cc2ccccc2)NC(=O)[C@@H](C)NC(=O)[C@H](CCCNC(=N)N)NC1=O [CM-1315] (cyclo(R[dA]FQAFRKMWPFFAM)),half-life,[1],~1 h
same,"T cell proliferation and IL-2, IFN-γ production of effector T cells (in words)",CD4+CD25-ve splenocytes,more active than P60
same,Protection against CT26 tumor challenge (in words),CT26 tumor cells,remained protected against challenge with CT26 tumor cells
same,half-life,[2],~1 h
same,Number of AH1-specific IFN-γ producing cells (in words),[3],significantly improved this response
same,Inhibition of suppressive activity of pre-treated Treg (in words),Treg cells,able to inhibit significantly the suppressive activity of Treg
